Experimental data as given in PMC2816717, “Active Fragments from Pro- and Antiapoptotic BCL-2 Proteins Have Distinct Membrane Behavior Reflecting Their Functional Divergence” (PLoS ONE, 2010).

Experiments:
[1] = Langmuir monolayer penetration assay at constant area; type: physicochemical; details: control peptides, Figure S2 legend; unit not given (Δπ elsewhere in mN/m); conditions as Fig. 5: πi 5 mN/m, 0.2 µM
Description: (§1) For the biophysical characterization of membrane active protein fragments, we have used Langmuir monolayers as in vitro model of lipid membranes. These supramolecular lipid films formed at the air-water interface are attractive membrane models, widely used for studying peptide-lipid interactions, [56], [57]. We have investigated the binding of peptides derived from the central helices of BAX, BCL-xL and BID at physiological pH with model phospholipid monolayers of a composition that imitates mitochondrial membranes. For this purpose we selected fragments encompassing the sequences corresponding to the first or second α-helices of the core hairpins of BAX, BCL-xL and BID, as defined in the water-soluble protein structures, [17], [19]. Because the structures of those proteins in a membrane environment is currently unavailable, for the case of the first hairpin helix of BAX and BCL-xL (α5) we analyzed both a short version (labeled “S”), including only the reported α-helical residues, and a long version (labeled “L”) that extends a few residues beyond the α-helix stretch at both ends. Divergence of the BID sequence precluded unambiguous alignment with the other two proteins and a similar peptide design. Peptides corresponding to the BH3 domain of BAX, BCL-xL and BID were also included in the study. The sequence and some general properties of the peptides analyzed in this study are described in Table 1 and Figure 1). Lipid mixtures of POPC/DOPE (2∶1) and POPC/DOPE/CL (1∶1∶1) were chosen to mimic the MOM and the contact sites between inner and outer mitochondrial membrane (MIM/MOM), respectively. Penetration assays were carried out at constant area by spreading the lipids at the air-buffer interface, compressing the film at πi = […] and then injecting the peptides into the subphase at a concentration of 0.2 µM (see Material and Methods). Subsequent peptide binding results typically in an increase of surface pressure. Thus, the peptide-monolayer interaction can be characterized by measurable kinetic properties, such as the initial velocity of surface pressure increase (Vi), which informs about the affinity of the peptide for the lipid-water interface, and the final increase of surface pressure (πmax), which can be related to the insertion ability of the peptide into the monolayer.
(§2) Monolayer experiments were performed on a computer-controlled Langmuir film balance (KSV 2000, three multi-compartment system, KSV Instrument Ltd., Finland) working in a symmetrical compression mode and enclosed in an opaque cabinet. The rectangular trough (V = 85 mL ±1 mL, S = 119.25 cm^2) was made of Teflon and the mobile barriers were made in Delrin. The surface pressure, π defined as γ0 – γ, where γ0 is the surface tension of the pure aqueous subphase and γ the surface tension exerted by phospholipids at the subphase surface, was measured by the Wilhelmy's method using a platinum plate with an accuracy of ±0.05 mN/m. The trough was filled with Hepes buffer (pH 7.4), used as subphase and thermostated with a water circulating bath (Lauda E100, LAUDA France, SARL). In all experiments, the subphase temperature was maintained at a constant value of 22.5±0.5°C.
Phospholipid monolayers were formed by deposition of 14 µl of spreading solutions at a clean air/buffer interface by means of a micropipette to reach a final amount of 14 nmol of phospholipids. After complete evaporation of the solvent (∼15 min), the monolayer was slowly compressed up to a defined lateral pressure (initial surface pressure πi) at a rate of 0.045 nm^2 molecule^−1 min^−1. The value of πi = 5 mN/m was chosen because it lies between the surface pressure set-off and surface pressures (e.g. 30 mN/m, which corresponds to a tightly packed film) where many peptides of the study will not insert. […]

isolated mitochondria = assay: Cytochrome c release assay, source of mitochondria not stated; type: biochemical; details: for effect on isolated mitochondria, in words: summary in Discussion
Method: (§3) Figure 7 Cytochrome c release assays. Peptides were incubated with isolated mitochondria for the indicated times (min) and the release of cytochrome c was monitored by Western blotting (IB). MitoHSP70 was used as an equal-loading control for the pellet fraction. Control lanes indicate that in the preparation the MOM is intact and cytochrome c is retained within the intermembrane space. A. Cytochrome c release assays for the first (BAX-α5S, BCLX-α5S, BID-α6) and second helices (BAX-α6, BCLX-α6, BID-α7) of the ‘pore domain’ of BAX, BCL-xL and BID using mitochondria isolated from HEK293T cells. B. Cytochrome c release assays for BAX-α5M and BAX-α5MS using mitochondria isolated from MEF and MEK BAX/BAK -/- double knock-out cells (MEF DKO). C. Cytochrome c release assays for the BH3 peptides.
Last, we proceeded to perform similar dose-response experiments by measuring cytochrome c release from isolated mitochondria with peptides derived from the BH3 domains of BAX, BID and BCL-xL. […] On the other hand, the BH3 peptides from BAX and BID triggered mitochondrial cytochrome c release, although with markedly less efficiency (starting at 25 µM after 15–30 min of peptide exposure) than BAX-α5, BAX-α6 or BID-α6.
(§4) Crude mitochondria were prepared from HEK 293T, mouse embryo fibroblast (MEF) or BAX/BAK double knockout MEF cells (MEF-DKO). In brief, cells were mechanically broken using a 2 ml glass/glass Dounce homogenizer (Kontes) (30 strokes). Homogenates were cleared at 1500 g and mitochondria were spun down at 10 000 g. For cytochrome c release assays, 30 µg of crude mitochondria were resuspended at 1 mg/ml in KCl buffer supplemented with succinate (5 mM) and EGTA (0.5 mM). Peptides (2.5, 10 or 25 µM) were added to the samples and incubations were carried out at 30°C under agitation (300 rpm). At the indicated time points, samples were centrifuged (5 min, 10 000 g, 4°C); supernatants and pellets were recovered and analyzed by immunoblotting for Cytochrome c and mitoHsp70.

[2] = Langmuir monolayer penetration assay, lipid mixture not singled out (Figure 5); type: physicochemical; details: πi 5 mN/m; for final increase of surface pressure πmax (insertion), in words: Figure 5A; for final increase of surface pressure πmax (insertion), in words / initial velocity of surface pressure increase Vi (affinity), in words: peptide 0.2 µM, Hepes pH 7.4, duplicate; for initial velocity of surface pressure increase Vi (affinity), in words: Figure 5B
Description: as §1
Figure 5 Changes in surface pressure after peptide injection. Peptides were injected underneath POPC/DOPE or POPC/DOPE/CL monolayers at constant area. A. Final increase of surface pressure πmax (mN/m) obtained for the different peptides. The dashed line denotes the threshold (Δπ = 4.8 mN/m) for significant surface pressure variation as determined using BAX-α5S without lipids (see text). B. Initial velocity of surface pressure increase (Vi = Δπ/s).
as §2
Phospholipid monolayers were formed by deposition of 14 µl of spreading solutions at a clean air/buffer interface by means of a micropipette to reach a final amount of 14 nmol of phospholipids. […]

[3] = system: mitochondria isolated from HEK293T cells; assay: Cytochrome c release assay; type: biochemical
Method: Thus, we tested the ability of the different peptides to induce the release of mitochondrial proteins by incubating them with mitochondria isolated from HEK293T cells, and subsequently assaying the supernatant and pelleted fractions with antibodies for cytochrome c and mitoHSP70. […] On the other hand, incubation of mitochondria with 10 µM BID-α6 induced a slower release, with depletion of the mitochondrial pool of cytochrome c occurring only after 1 hour incubation.
as §3, §4

[4] = system: mitochondria isolated from BAX/BAK double knockout mouse embryonic fibroblasts (MEF DKO); assay: Cytochrome c release assay; type: biochemical; details: Figure 7B
Method: as §3
Crude mitochondria were prepared from HEK 293T, mouse embryo fibroblast (MEF) or BAX/BAK double knockout MEF cells (MEF-DKO). In brief, cells were mechanically broken using a 2 ml glass/glass Dounce homogenizer (Kontes) (30 strokes). Homogenates were cleared at 1500 g and mitochondria were spun down at 10 000 g. […] At the indicated time points, samples were centrifuged (5 min, 10 000 g, 4°C); supernatants and pellets were recovered and analyzed by immunoblotting for Cytochrome c and mitoHsp70.

[5] = long versus short α5 peptide, 0.2 µM
[6] = 10 µM peptide, 5 min incubation, 30°C, Western blot of supernatant and pellet
[7] = only at the highest concentration assayed, 25 µM, 5 min

For “EQIMKTGAFLLQGFIQDRAGRW [BAX-α1, control peptide, first helix localized at the N-terminus of BAX, reference compound]”, the “Δπ in POPC/DOPE monolayers” value [1] was 4 and the “Δπ in POPC/DOPE/CL monolayers” value [1] was 3.4.

With “AREVIPMAAVKQALREAGDEFELRYRRAF [BCLX-BH3, peptide corresponding to the BH3 domain of BCL-xL]” the “cytochrome c release, in words” value (isolated mitochondria; BH3 peptides, dose-response, Figure 7C) was “no cytochrome c release” and the “effect on isolated mitochondria, in words” value (shortened to “effect”) (isolated mitochondria) was “lack of effect”.

For “VPQDASTKKLSECLKRIGDELDSNMELQR [BAX-BH3, peptide corresponding to the BH3 domain of BAX]”, the “concentration at which cytochrome c release starts” value (isolated mitochondria; BH3 peptides, Figure 7C) was 25 µM.

For “TARWKKWGFQPRLKEQEGDVARDSQR [BCL2L10-LAAS, control peptide, connecting region between predicted α5-α6 helices of BCL2L10 (Long Amino Acid Stretch), reference compound]”, the “Δπ in POPC/DOPE monolayers” value [1] was 3.4 and the “Δπ in POPC/DOPE/CL monolayers” value [1] was 5.5.

With “DGNFNWGRVVALFYFASKLVLKALSTKVPELIRT [BAX-α5L, long version of BAX helix α5, extended at both ends]” the “final increase of surface pressure πmax (insertion), in words” value (from here on “final increase of surface pressure πmax”) [2] was “much lower value”, the “surface pressure compared to BAX-α5S” value [2, 5] was “about half” and the “cytochrome c release, in words” value [3, 6] was “some residual cytochrome c was still present in the mitochondrial pellet”.

For “NWGVVKALFYFASVLRLKALSTKVPELIR [BAX-α5MS]”, the “kinetics of cytochrome c release, in words” value ([4]; mitochondria from MEF and MEF DKO, relative to BAX-α5M) was “increased lag time and a decreased rate of cytochrome c release” and the “final increase of surface pressure πmax” value [2] was “reduced surface pressure compared to BAX-α5M”.

In the case of “SLLRDVFHTTVNFINQANLRTYVR [BID-α7, second helix (α7) of the central hairpin of BID]”, the “effect” value (isolated mitochondria) is reported as “lack of effect” and the “final increase of surface pressure πmax” value [2] is reported as “lowest increase of surface pressure”.

With “ESQEDIIRNIARHLAQVGDSMDRSIPPGL [BID-BH3, peptide corresponding to the BH3 domain of BID]” the “concentration at which cytochrome c release starts” value (isolated mitochondria; BH3 peptides, Figure 7C) was 25 µM and the “initial velocity of surface pressure increase Vi (affinity), in words” value [2] was “strong”.

For NWGRVVALFYFASKLVLKALSTKVPELIR [BAX-α5M], the “cytochrome c release, in words” value ([4]; mitochondria from MEF DKO) was “Cytochrome c release also occurred” and the “initial velocity of surface pressure increase Vi (affinity), in words” value [2] was “slightly smaller”.

With “RDGVNWGRIVAFFSFGGALSVESVDKEMQVLVSR [BCLX-α5L, long version of helix α5 of BCL-xL]” the “final increase of surface pressure πmax” value [2] was “higher than the one of the BH3 peptides”, the “increase in surface pressure compared to BCLX-α5S” value [2, 5] was roughly 5 fold and the “cytochrome c release, in words” value [3, 7] was “release of large amounts of cytochrome c”.

For “ELIRTIMGWTLDFLRERLLVWIQD [BAX-α6, second helix (α6) of the central hairpin of BAX]”, the “final increase of surface pressure πmax” value [2] was “highest increases in surface pressure” and the “cytochrome c release, in words” value [3, 6] was “complete depletion of all mitochondrial cytochrome c”.

For “WGRIVAFFSFGGALSVESVDK [BCLX-α5S, short peptide of helix α5 of BCL-xL]”, the “effect” value (isolated mitochondria) was “lack of effect”, the “final increase of surface pressure πmax” value [2] was “lowest increase of surface pressure” and the “initial velocity of surface pressure increase Vi (affinity), in words” value [2] was “strong”. The “cytochrome c release, in words” value ([3]; all doses and times tested (2.5, 10 or 25 µM)) was “completely failed to release cytochrome c”.

For “VPQDASTKKLSECEKRIGNELDSNMELQR [BAX-BH3m, BAX BH3 mutant harboring substitutions (L63E/D68N)]”, the “cytochrome c release, in words” value (isolated mitochondria; even at 100 µM (data not shown)) was “failed to induce cytochrome c release”.

In the case of “EKEKTMLVLALLLAKKVASH [BID-α6, first helix (α6) of the central hairpin of BID]”, the “final increase of surface pressure πmax” value [2] is reported as “higher than the one of the BH3 peptides” and the “incubation time at which the mitochondrial pool of cytochrome c is depleted” value ([3]; 10 µM peptide, 30°C, Western blot) is reported as 1 h.

For “VLVSRIAAWMATYLNDHLEPWIQE [BCLX-α6, second helix (α6) of the central hairpin of BCL-xL]”, the “final increase of surface pressure πmax” value [2] was “higher than the one of the BH3 peptides”, the “initial velocity of surface pressure increase Vi (affinity), in words” value [2] was “strong” and the “cytochrome c release, in words” value [3, 7] was “release of large amounts of cytochrome c”.
